Measurements as given in US20070265451A1, “Process for the preparation of oxazolidinones and method of use thereof” (Board of Trustees of Michigan State University, priority 2001, published 2007).
≈ marks a conversion by molar mass, not a printed value. Like-named read-outs stand apart in the source and are kept apart here.

Experiments:
Assay type in all cases: cell-based
[1] = system: Staphylococcus aureus NRS103 (Becker); assay: Broth microdilution MIC, Ref SA Becker; conditions: strain Becker, read-out: MIC90-100 Ref SA Becker
Text: (§1) See, NCCLS document M7-A5. Methods for Dilution Antimicrobial Susceptibility Tests for Bacteria That Grow Aerobically; Approved Standard-Fifth Edition. Volume 20, Number 2. January 2000, (ISBN 1-56238-394-9) and Lorian V. Antibiotics. Laboratory Medicine. 4th ed. Baltimore: Williams and Wilkins, pp. 52-111 (1996). For subsequent testing, the following strains have been used: Staphylococcus aureus NRS4 (992; HIP5836; New Jersey) (Smith et al., New Engl. J. Med. 340: 493-501 (1999); Tenover et al., J. Clin. Microbiol. 36: 1020-1027 (1998)), Staphylococcus aureus NRS3 (963sm; HIP5827; Michigan) (Smith et al., ibid.; Tenover et al., ibid.), Staphylococcus aureus NRS103 (Becker) (Karakawa and Vann, Sem. Infect. Dis. 4: 285 (1982), Staphylococcus aureus NRS102 (Reynolds) Karakawa and Vann, ibid; McMurray et al., JID 162: 759-762 (1990)), Staphylococcus epidermidis NRS101 (ATCC 35984), Streptococcus pneumoniae (ATCC 49619), Enterococcus faecalis (ATCC 51299), and Staphylococcus aureus (ATCC 43300.
(§2) Stock cultures of these strains were obtained by seeding colonies from overnight streak plates (Tryptic Soy Agar II (TSAII) and 5% sheep's blood (SB) agar plates: Becton Dickinson, CA#2211261) into sterile Mueller-Hinton Broth (MHB)(Becton Dickinson, CA#211443) and growing the suspensions to mid-late log phase in 13 mL screw-cap tubes. Glycerol (Sigma, CA#G-6279) was sterilized by autoclaving for 15 minutes at 121° C. in 6 mL volumes, and then stored at 2-8° C. This was diluted to 20% in dH2O, and then added 1:1 (250 μL:250 μL, 10% final glycerol concentration) to the logarithmically growing bacterial suspension of each strain. Tubes were frozen and stored at −70° C. Purity of the stock cultures was tested by thawing one tube of each strain in a water bath at 37° C. and plating them on TSAII with 5% SB. Plates were incubated overnight at 37° C. and colonies were examined for morphology. Growth curves and approximate CFU/mL were also obtained.
(§3) High purity substituted oxazolidinones prepared according to the method of the present invention and a ZYVOX standard (ZYVOX is a trade name for linezolid available from Pharmacia Corporation) were provided by Synthon Corporation, Monmouth Junction, N.J. Compounds were dissolved at 10 mg/mL in DMSO, as after a dilution of approx. 39.0 to reach the desired final starting concentration of 256 ug/ml, the concentration of DMSO is approximately 2.5%. Compounds were then stored at room temperature (25° C.) in the dark.
(§4) Antimicrobial susceptibility screening was as follows. All compounds were initially screened for activity in duplicate at 256 μg/mL (2.5% DMSO), including ZYVOX, the positive control for antimicrobial activity. A single well of bacterially inoculated 2.5% DMSO served as a positive control for bacterial growth, while a well of DMSO inoculated with of 50 μL of sterile 0.9% saline served as a negative growth control. Controls were prepared on every microplate, so that 46 was the maximum number of compounds that were screened per plate. Broth was pipetted into sterile microcentrifuge tubes, to which the compounds were then added (1:19.53 dilution or 2× final concentration). Each tube was vortexed, and 50 μL was immediately transferred to the microplate wells for each strain. Solubility was assessed by visual observation. MB (medium broth solubility) was recorded if the solution appeared only slightly cloudy. LB (low broth solubility) was recorded if the solution was extremely cloudy, and especially if larger, clumpy precipitates formed. Bacteria were grown as described above, although absorbance was measured at 650 nm and bacteria were diluted to an initial OD of 0.12-0.15. Bacteria were then further diluted 1:100 with 0.9% sterile saline. Within 15 minutes of this final dilution, 50 μL of this suspension was added to each well for a final volume of […], and a final bacterial concentration of 1×10^5 CFU/mL (except for the negative control well). Plates were grown as above and all observations were recorded. […]

[2] = system: Staphylococcus aureus NRS4 (992; HIP5836; New Jersey); assay: Broth microdilution MIC, MR SA New Jersey; conditions: strain New Jersey; for MIC90: Staphylococcus aureus, NRS4, methicillin resistant SA, read-out: MIC90-100 MR SA New Jersey
Text: as §1, §2, §3, §4

[3] = system: Staphylococcus aureus NRS102 (Reynolds); assay: Broth microdilution MIC, Pen. R SA Reynolds; conditions: strain Reynolds, read-out: MIC90-100 Pen. R SA Reynolds
Text: as §1, §2, §3, §4

[4] = system: Enterococcus faecalis (ATCC 51299); assay: Broth microdilution MIC, Enterococcus faecalis ATCC 51299
Text: as §1, §2, §3, §4

[5] = system: Staphylococcus aureus 29213; assay: Broth microdilution MIC, Staphylococcus aureus ATCC 29213; conditions: for MIC90 / MIC: Staphylococcus aureus; for MIC90: ATCC29212, Table 1, SA, strain ATCC 29212, read-out: MIC90-100 SA ATCC 29212; for MIC: ATCC29213, Table 2, read-out: MIC(90-100) SA-ATCC 29213
Text: as §1, §2, §3, §4

[6] = system: Staphylococcus aureus NRS3 (963sm; HIP5827; Michigan); assay: Broth microdilution MIC, MR SA Michigan; conditions: strain Michigan; for MIC90: Staphylococcus aureus, NRS3, methicillin resistant SA, read-out: MIC90-100 MR SA Michigan
Text: as §1, §2, §3, §4

[7] = system: Enterococcus faecalis 29212; assay: Broth microdilution MIC, Enterococcus faecalis ATCC 29212; conditions: for MIC / MIC90: Enterococcus faecalis; for MIC: ATCC29212, Table 2, read-out: MIC(90-100) EF-ATCC 29212; for MIC90: ATCC29213, Table 1, read-out: MIC90-100 EF ATCC 29213
[8] = system: Staphylococcus aureus (ATCC 43300); assay: Broth microdilution MIC, MR SA ATCC 43300; conditions: ATCC43300, methicillin resistant SA, read-out: MIC90-100 MR SA ATCC 43300
Text: as §1, §2, §3, §4

[9] = system: Erythroid bone marrow cells; assay: Bone marrow cell growth inhibition, erythroid
Text: (§5) In general, many of the substituted oxazolidinones were as effective as ZYVOX.

[10] = system: Myeloid bone marrow cells; assay: Bone marrow cell growth inhibition, myeloid
Text: as §5

[11] = system: Megakaryocytic bone marrow cells; assay: Bone marrow cell growth inhibition, megakaryocytic
Text: as §5

[12] = ATCC51299, read-out: MIC90-100 VS EF ATCC 51299

Row | Compound | MIC90 [1] [µg/mL] | MIC90 [2] [µg/mL] | MIC90 [3] [µg/mL] | MIC90 [5] [µg/mL] | MIC [5] [µg/mL] | MIC90 [6] [µg/mL] | MIC [7] [µg/mL] | MIC90 ([7]; EF, strain printed ATCC 29213) [µg/mL] | further results
1 | O=C1O[C@@H](COSc2ccc([N+](=O)[O-])cc2)CN1c1ccc([N+](=O)[O-])cc1 [Compound 1808] | 16 (≈ 40.9 µM) | 4 (≈ 10.2 µM) | 16 (≈ 40.9 µM) | 4 to 8 (≈ 10.2 to 20.4 µM) | 8 (≈ 20.4 µM) | 3 (≈ 7.67 µM) | 2 (≈ 5.11 µM) | 2 (≈ 5.11 µM) | MIC90 [4, 12]: 2 µg/mL (≈ 5.11 µM); MIC90 [8]: 8 µg/mL (≈ 20.4 µM)
2 | O=C(OC[C@H]1CN(c2ccc([N+](=O)[O-])cc2)C(=O)O1)Oc1ccc([N+](=O)[O-])cc1 [Compound 1809] | 4 (≈ 9.92 µM) | 3 (≈ 7.44 µM) | 8 (≈ 19.8 µM) | 4 to 8 (≈ 9.92 to 19.8 µM) | 8 (≈ 19.8 µM) | 3 (≈ 7.44 µM) | 4 (≈ 9.92 µM) | 4 (≈ 9.92 µM) | MIC90 [4, 12]: 2 µg/mL (≈ 4.96 µM); MIC90 [8]: 4 µg/mL (≈ 9.92 µM)
3 | CCN1C[C@@H](COS(=O)(=O)c2ccc([N+](=O)[O-])cc2)OC1=O [Compound 2405] | 4 (≈ 12.1 µM) | – | 8 (≈ 24.2 µM) | 2 (≈ 6.05 µM) | – | – | – | – | MIC90-100 MR SA New Jersey ([2]; methicillin resistant SA): 4 µg/mL (≈ 12.1 µM); MIC90-100 MR SA Michigan ([6]; methicillin resistant SA): 2 µg/mL (≈ 6.05 µM); MIC90-100 EF ATCC 29213 ([7]; Table 1, EF, strain printed ATCC 29213): 2 µg/mL (≈ 6.05 µM)
4 | CN(C)C(=O)CN1C[C@@H](COS(=O)(=O)c2ccc([N+](=O)[O-])cc2)OC1=O [Compound 1021] | – | 256 (≈ 661 µM) | – | 16 to 32 (≈ 41.3 to 82.6 µM) | 32 (≈ 82.6 µM) | 256 (≈ 661 µM) | – | 250 (≈ 645 µM) | MIC90 ([4]; ATCC51299, vancomycin sensitive EF, ATCC 51299, read-out: MIC90-100 VS EF ATCC 51299): > 256 µg/mL; IC50 [9]: 20 µg/mL (≈ 51.6 µM); IC50 [10]: 20 µg/mL (≈ 51.6 µM); IC50 [11]: 0.9 µg/mL (≈ 2.32 µM); MIC90 [8]: 100 µg/mL (≈ 258 µM)
5 | CC(C)N1C[C@H](CNSc2ccc([N+](=O)[O-])cc2)OC1=O [Compound 2428] | 16 (≈ 51.4 µM) | 4 to 8 (≈ 12.8 to 25.7 µM) | 32 (≈ 103 µM) | 4 (≈ 12.8 µM) | – | 4 to 8 (≈ 12.8 to 25.7 µM) | – | 4 (≈ 12.8 µM) | –
6 | O=C1OC(COSc2ccc([N+](=O)[O-])cc2)CN1Cc1ccc(Br)cc1 (stereo not drawn) [Compound 2019] | – | – | – | – | 16 (≈ 36.4 µM) | – | 32 (≈ 72.8 µM) | – | –
7 | COc1cccc(CN2CC(COS(=O)(=O)c3ccc(Cl)c4nonc34)OC2=O)c1 (stereo not drawn) [Compound 323] | – | – | – | – | 250 (≈ 551 µM) | – | 125 (≈ 275 µM) | – | –
8 | CN1C[C@@H](CNSc2ccc([N+](=O)[O-])cc2)OC1=O [Compound 1687] | 3 (≈ 10.6 µM) | 2 (≈ 7.06 µM) | 3 (≈ 10.6 µM) | 2 (≈ 7.06 µM) | – | 2 (≈ 7.06 µM) | – | 2 (≈ 7.06 µM) | IC50 [9]: 0.01 µg/mL (≈ 0.0353 µM); IC50 [10]: 20 µg/mL (≈ 70.6 µM); IC50 [11]: 6 µg/mL (≈ 21.2 µM)
9 | O=C1O[C@H](CNSc2ccc([N+](=O)[O-])cc2)CN1c1ccc([N+](=O)[O-])cc1 [Compound 2278] | 8 (≈ 20.5 µM) | 4 (≈ 10.2 µM) | 8 (≈ 20.5 µM) | 4 (≈ 10.2 µM) | – | 4 (≈ 10.2 µM) | – | 2 (≈ 5.12 µM) | –
10 | CC(=O)/C=C/N1CC(COSc2ccc([N+](=O)[O-])cc2)OC1=O (stereo not drawn) [Compound 2023] | – | – | – | – | 64 (≈ 189 µM) | – | 32 (≈ 94.6 µM) | – | –
11 | CC(C)(C)OC(=O)/C=C/N1C[C@@H](COS(=O)(=O)c2ccc([N+](=O)[O-])cc2)OC1=O [Compound 1001] | – | – | – | – | 64 (≈ 149 µM) | – | 125 (≈ 292 µM) | – | –
12 | CCCCN1CC(COS(=O)(=O)c2ccc(Cl)c3nonc23)OC1=O (stereo not drawn) [Compound 1141] | – | – | – | – | 64 (≈ 164 µM) | – | 128 (≈ 328 µM) | – | –
13 | O=C(CN1CC(COS(=O)(=O)c2ccc(Cl)c3nonc23)OC1=O)c1ccc(F)cc1 (stereo not drawn) [Compound 401] | – | – | – | – | – | – | – | – | MIC(90-100) SA-ATCC 29213 ([5]; Table 2): 250 µg/mL (≈ 532 µM); MIC(90-100) EF-ATCC 29212 ([7]; Table 2): 62.5 µg/mL (≈ 133 µM)
14 | O=C(CN1CC(COS(=O)(=O)c2ccc(Cl)c3nonc23)OC1=O)c1ccc(F)cc1 (stereo not drawn) [Compound 369] | – | – | – | – | 250 (≈ 532 µM) | – | 31.3 (≈ 66.6 µM) | – | –
15 | C=CCN1CC(COS(=O)(=O)c2ccc(Cl)c3nonc23)OC1=O (stereo not drawn) [Compound 255] | – | – | – | – | 62.5 (≈ 167 µM) | – | 250 (≈ 669 µM) | – | –
16 | CCC#CCN1CC(COS(=O)(=O)c2ccc(Cl)c3nonc23)OC1=O (stereo not drawn) [Compound 276] | – | – | – | – | 125 (≈ 313 µM) | – | 250 (≈ 625 µM) | – | –
17 | CN(C)C(=O)/C=C/N1C[C@@H](COC(=O)c2csc(-c3ccccc3)n2)OC1=O [Compound 1631] | – | – | – | – | 16 (≈ 39.9 µM) | – | 16 (≈ 39.9 µM) | – | –
18 | CN(C)C(=O)/C=C/N1C[C@@H](COC(=O)c2cc(Cl)sc2Cl)OC1=O [Compound 1629] | – | – | – | – | 256 (≈ 651 µM) | – | 64 (≈ 163 µM) | – | –
19 | COc1ccc(C(=O)CN2C[C@@H](COS(=O)(=O)c3ccc(Cl)c4nonc34)OC2=O)cc1 [Compound 207] | – | – | – | 64 to 125 (≈ 133 to 259 µM) | – | – | – | 250 (≈ 519 µM) | IC50 [9]: 0.2 µg/mL (≈ 0.415 µM); IC50 [10]: 0.8 µg/mL (≈ 1.66 µM); IC50 [11]: 3 µg/mL (≈ 6.23 µM)
